Experimental data published in patent US20240018158A1, “BRM TARGETING COMPOUNDS AND ASSOCIATED METHODS OF USE” (Prelude Therapeutics Incorporated, priority 2020, published 2024).

Molecular target: SMARCA2 (Homo sapiens (Human), UniProt P51531)
Assay: SMARCA2 HiBiT degradation assay in HEK293T cells
Format: cell-based
Conditions: 293T HiBiT assay, 24 h; for DC50: read-out: DC50 (SM2-293T) SMARCA2 degradation potency; for Dmax: HEK-293T, read-out: Dmax % (SM2-293T) maximum SMARCA2 degradation within the concentrations tested
Method in brief: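 Luminescence from endogenous C-terminally HiBiT-tagged SMARCA2 (homozygous knock-in, LgBiT HEK293T) measured after 24 h compound exposure, 11 concentrations in 3-fold steps. DMSO and 1 μM PRT1001728 set 0% and 100%; DC50 fitted by four-parameter logistic model.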

SMARCA2, sequence (P51531 whole entry): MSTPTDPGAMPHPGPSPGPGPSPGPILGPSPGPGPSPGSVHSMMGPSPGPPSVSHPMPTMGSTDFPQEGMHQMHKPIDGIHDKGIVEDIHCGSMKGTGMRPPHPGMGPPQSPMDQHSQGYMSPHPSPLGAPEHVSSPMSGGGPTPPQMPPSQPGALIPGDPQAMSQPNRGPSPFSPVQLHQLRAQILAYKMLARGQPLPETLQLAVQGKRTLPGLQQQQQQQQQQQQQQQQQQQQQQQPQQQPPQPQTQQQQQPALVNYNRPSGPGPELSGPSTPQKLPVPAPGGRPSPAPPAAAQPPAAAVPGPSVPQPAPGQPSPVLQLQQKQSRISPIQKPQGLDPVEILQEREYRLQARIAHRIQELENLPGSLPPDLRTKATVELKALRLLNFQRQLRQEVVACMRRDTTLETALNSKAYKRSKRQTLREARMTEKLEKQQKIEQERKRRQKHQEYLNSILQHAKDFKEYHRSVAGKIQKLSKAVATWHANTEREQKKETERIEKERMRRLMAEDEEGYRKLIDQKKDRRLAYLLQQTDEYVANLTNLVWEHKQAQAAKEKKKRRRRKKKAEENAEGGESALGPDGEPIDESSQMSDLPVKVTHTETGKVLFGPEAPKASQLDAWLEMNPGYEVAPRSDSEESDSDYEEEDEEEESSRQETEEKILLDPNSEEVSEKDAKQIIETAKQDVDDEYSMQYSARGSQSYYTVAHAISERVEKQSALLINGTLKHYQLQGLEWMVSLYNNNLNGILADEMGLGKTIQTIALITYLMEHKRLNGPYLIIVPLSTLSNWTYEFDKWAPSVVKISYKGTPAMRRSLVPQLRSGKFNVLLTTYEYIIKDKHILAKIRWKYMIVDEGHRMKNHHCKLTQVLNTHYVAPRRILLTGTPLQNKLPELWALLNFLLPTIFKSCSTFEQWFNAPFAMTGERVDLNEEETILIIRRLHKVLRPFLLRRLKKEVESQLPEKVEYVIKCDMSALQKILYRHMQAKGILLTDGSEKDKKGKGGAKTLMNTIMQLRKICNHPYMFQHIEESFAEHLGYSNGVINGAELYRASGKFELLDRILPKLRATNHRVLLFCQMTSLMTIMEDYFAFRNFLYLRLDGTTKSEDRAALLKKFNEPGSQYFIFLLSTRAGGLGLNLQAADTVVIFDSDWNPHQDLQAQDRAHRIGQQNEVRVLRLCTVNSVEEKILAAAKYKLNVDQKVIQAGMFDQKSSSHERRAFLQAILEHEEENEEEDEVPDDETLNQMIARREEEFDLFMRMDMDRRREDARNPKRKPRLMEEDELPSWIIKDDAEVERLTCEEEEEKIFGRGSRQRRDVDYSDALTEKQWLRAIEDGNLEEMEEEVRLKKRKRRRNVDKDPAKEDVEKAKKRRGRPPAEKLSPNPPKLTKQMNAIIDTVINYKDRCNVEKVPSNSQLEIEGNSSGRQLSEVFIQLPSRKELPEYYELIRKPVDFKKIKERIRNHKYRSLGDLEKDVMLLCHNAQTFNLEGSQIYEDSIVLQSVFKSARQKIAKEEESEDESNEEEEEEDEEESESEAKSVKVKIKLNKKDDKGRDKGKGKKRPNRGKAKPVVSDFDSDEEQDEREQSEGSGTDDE

Structure (SMILES) | DC50 [µM] | Dmax [%]
Cc1ncsc1-c1ccc([C@H](C)NC(=O)[C@@H]2C[C@@H](O)CN2C(=O)[C@@H](c2cc(OCC(=O)N3CCC(N4CCN5c6cc(-c7ccccc7O)nnc6NC[C@H]5C4)C(C)C3)no2)C(C)C)cc1 (single isomer, unassigned) [Example 31] | < 0.1 | > 75
Cc1ncsc1-c1ccc([C@H](C)NC(=O)[C@@H]2C[C@@H](O)CN2C(=O)[C@@H](c2cc(OCCN3CCC(N4CCN5c6cc(-c7ccccc7O)nnc6NC[C@H]5C4)C(F)C3)no2)C(C)C)cc1 (stereo partly drawn) [Example 14, (2S,4R)-1-((2R)-2-(3-(2-(3-fluoro-4-((S)-2-(2-hydroxyphenyl)-5,6,6a,7,9,10-hexahydro-8H-pyrazino[1′,2′:4,5]pyrazino[2,3-c]pyridazin-8-yl)piperidin-1-yl)ethoxy)isoxazol-5-yl)-3-methylbutanoyl)-4-hydroxy-N-((S)-1-(4-(4-methylthiazol-5-yl)phenyl)ethyl)pyrrolidine-2-carboxamide] | < 0.1 | > 75
Cc1ncsc1-c1ccc([C@H](C)NC(=O)[C@@H]2C[C@@H](O)CN2C(=O)[C@@H](NC(=O)C2CN(CCCN3CCN4c5cc(-c6ccccc6O)nnc5NCC4C3)C2)C(C)(C)C)cc1 (stereo partly drawn) [Example 82, (2S,4R)-4-hydroxy-1-((2S)-2-(1-(3-(2-(2-hydroxyphenyl)-5,6,6a,7,9,10-hexahydro-8H-pyrazino[1′,2′:4,5]pyrazino[2,3-c]pyridazin-8-yl)propyl)azetidine-3-carboxamido)-3,3-dimethylbutanoyl)N-((S)-1-(4-(4-methylthiazol-5-yl)phenyl)ethyl)pyrrolidine-2-carboxamide] | < 0.1 | > 75
Cc1ncsc1-c1ccc([C@H](C)NC(=O)[C@@H]2C[C@@H](O)CN2C(=O)[C@@H](c2cc(OCCN3CCC(N4CCN5c6cc(-c7ccccc7O)nnc6NC[C@H]5C4)C(C)C3)no2)C(C)C)cc1 (single isomer, unassigned) [Example 56] | < 0.1 | > 75

Continued, values first:

DC50 [µM] | Dmax [%] | Structure (SMILES)
< 0.1 | > 75 | Cc1ncsc1-c1ccc([C@H](C)NC(=O)[C@@H]2C[C@@H](O)CN2C(=O)C(c2cc(CN3CCC(CN4CCN5c6cc(-c7ccccc7O)nnc6NC[C@H]5C4)CC3)no2)C(C)C)cc1 (stereo partly drawn) [Example 32, (2S,4R)-4-hydroxy-1-(2-(3-((4-(((S)-2-(2-hydroxyphenyl)-5,6,6a,7,9,10-hexahydro-8H-pyrazino[1′,2′:4,5]pyrazino[2,3-c]pyridazin-8-yl)methyl)piperidin-1-yl)methyl)isoxazol-5-yl)-3-methylbutanoyl)N-((S)-1-(4-(4-methylthiazol-5-yl)phenyl)ethyl)pyrrolidine-2-carboxamide]
< 0.1 | > 75 | CC(C)[C@@H](C(=O)N1C[C@H](O)C[C@H]1C(=O)N[C@@H](C)c1ccc(C#N)cc1)c1cc(OCCN2CCC(CN3CCN4c5cc(-c6ccccc6O)nnc5NC[C@H]4C3)CC2)no1 [Example 35, (2S,4R)—N-((S)-1-(4-cyanophenyl)ethyl)-4-hydroxy-1-((R)-2-(3-(2-(4-(((S)-2-(2-hydroxyphenyl)-5,6,6a,7,9,10-hexahydro-8H-pyrazino[1′,2′:4,5]pyrazino[2,3-c]pyridazin-8-yl)methyl)piperidin-1-yl)ethoxy)isoxazol-5-yl)-3-methylbutanoyl)pyrrolidine-2-carboxamide]
< 0.1 | > 75 | Cc1ncsc1-c1ccc([C@H](C)NC(=O)[C@@H]2C[C@@H](O)CN2C(=O)[C@@H](c2cc(OCCN3CCCC(CN4CCN5c6cc(-c7ccccc7O)nnc6NC[C@H]5C4)CC3)no2)C(C)C)cc1 (stereo partly drawn) [Example 84, (2S,4R)-4-hydroxy-1-((2R)-2-(3-(2-(4-(((S)-2-(2-hydroxyphenyl)-5,6,6a,7,9,10-hexahydro-8H-pyrazino[1′,2′:4,5]pyrazino[2,3-c]pyridazin-8-yl)methyl)azepan-1-yl)ethoxy)isoxazol-5-yl)-3-methylbutanoyl)-N-((S)-1-(4-(4-methylthiazol-5-yl)phenyl)ethyl)pyrrolidine-2-carboxamide]
< 0.1 | > 75 | Cc1nccn1-c1ccc([C@H](C)NC(=O)[C@@H]2C[C@@H](O)CN2C(=O)[C@@H](c2cc(OCCN3CCC(CN4CCN5c6cc(-c7ccccc7O)nnc6NC[C@H]5C4)CC3)no2)C(C)C)cc1 [Example 37, (2S,4R)-4-hydroxy-1-((R)-2-(3-(2-(4-(((S)-2-(2-hydroxyphenyl)-5,6,6a,7,9,10-hexahydro-8H-pyrazino[1′,2′:4,5]pyrazino[2,3-c]pyridazin-8-yl)methyl)piperidin-1-yl)ethoxy)isoxazol-5-yl)-3-methylbutanoyl)-N-((S)-1-(4-(2-methyl-1H-imidazol-1-yl)phenyl)ethyl)pyrrolidine-2-carboxamide]
